In US8597632B2, “Anionic oligosaccharide conjugates” (Glycan Biosciences LLC, priority 2008, dated 2013):
Marks after values point to notes of the source that are not given here.

Assays:
Type in all cases: in vivo
[1] = test system: guinea pig model of asthma; assay: Guinea pig model of asthma (OVA)
Guinea-pig anaphylaxis = Guinea-pig anaphylaxis model (OVA); conditions: for % of the animals died (anaphylaxis): 5 mg/kg intranasal 30 min prior to OVA
Description: Guinea-pig anaphylaxis has for many years been considered the classical example of anaphylaxis, in contrast to other species (e.g. mice) that completely lack anaphylactic responses after allergen inhalation. Anaphylactic shock is believed to be due to liberation of histamine with subsequent contraction of smooth muscle after the inhalation of antigen into the airway and lungs. Contraction of the bronchial musculature completely shuts off the alveoli and prevents exhalation of air, and the animals die of asphyxia. In guinea-pigs allergen doses that are high enough to produce a significant late-phase responses (i.e. cellular eosinophilia, late phase exudation) inevitably also give rise to prior strong acute reactions that are so intense that some animals may die in acute airway constriction.
In this model the guinea pigs were sensitized to ovalbumin (OVA) twice (on days 0 and 7) by an intraperitoneal injection of 0.5 mL saline containing 100 mg Al(OH)3 and 2 μg OVA. Three weeks after the last sensitization, animals were anaesthetized and the exposure of the nasal cavity to allergen was performed by dropping OVA solution at 2 mg/mL into bilateral nasal cavities (20 μl per nasal cavity). For the negative control the animals received sensitization and challenge with saline. The animals are pretreated with either vehicle or drug (anionic oligosaccharide conjugates or Budesonide) 30 min prior to intranasal instillation of OVA. Vehicle or drugs are administered, 25 μl-50 μl/nostril. A comparison of the anionic oligosaccharide conjugates with Budesonide, as the reference compound, is included. In this study Budesonide at 0.65 mg/kg was not effective at preventing anaphylaxis as 70% of the animals in this group died by acute airway constriction.

[2] = test system: allergic rhinitis model in the guinea pig; assay: Allergic rhinitis model in the guinea pig (OVA); conditions: for % inhibition of protein content of the nasal lavage fluid (plasma exudation): 5 mg/kg intranasal 30 min before OVA, 8 hours after challenge; for eosinophil and neutrophil infiltration into nasal lavage fluid: 5 mg/kg, 8 hours after challenge (FIG. 3)
mouse model of emphysema = assay: Mouse model of emphysema / COPD (cigarette smoke)
Protocol: A mouse model of emphysema was used. Acute or chronic exposure of mice to cigarette smoke lead to lung responses that in part mimic the inflammatory and structural changes observed in COPD. In this model male C57Bl/6J mice are subjected to acute or chronic smoke exposure, with normal room air being the control situation. In the acute study mice were exposed to either room air or to the smoke of five cigarettes (approximately 12 mg of tar and 0.9 mg of nicotine) for 20 minutes. In the chronic study mice were exposed to either room air or to the smoke of three cigarettes/day for 5 days/week for 6 months. The 4 groups of mice were then further divided so that mice within each group also received various anionic oligosaccharide conjugates via an inhaled route.
In the acute exposure groups of mice anionic oligosaccharide conjugates were given 30 minutes before exposure to cigarette smoke. Assessment of the efficacy of the drug for mice in the acute exposure groups involved assessment of trolox equivalent anti-oxidant capacity of the bronchoalveolar lavage fluid (BALF) at the end of smoke exposure. The BALF was examined for cytokines and chemokines that are associated with an inflammatory response. The levels of these agents were determined at 4 hours after exposure and at 24 hours after cigarette smoke exposure. A range of cytokines and chemokines was measured. These included: IL-1α, IL-1β, IL-2, IL-3, IL-4, IL-5, IL-6, IL-10, IL-12, RANTES, MIP-1α, cytokine-induced neutrophil chemoattractant (KC), TNF-α and IFN-γ). A differential cell count of the cells in the BALF was also determined.
The animals in the chronic study received the anionic oligosaccharide conjugates (including ID 9) once a day for the duration of the experiment. At the completion of the experiment animals were killed and the lungs fixed intratracheally with formalin (5%) and lung volume was measured by water displacement. […] The level of desmosine in the lung tissue was also determined. […]

[3] = test system: rat model of acute lung injury and ADRS; assay: Rat model of acute lung injury and ARDS (LPS); conditions: intra-tracheal 0.5 and 2.5 mg/kg, 30 minutes before LPS
Description: A rat model of acute lung injury and ADRS was used (Jansson, Lung 182:1-9, 2004). The model is based on the understanding that endotoxin found in common pathogens (e.g. bacteria) can lead to the development of ARDS, septic shock and multiple organ dysfunction syndrome in the clinical situation. Lipopolysaccharide (LPS), a component of the outer membrane of gram-negative bacteria is the prototypical example of endotoxin and exposure of the respiratory tract of rats to LPS can be used as a model of acute lung inflammation and ARDS. […]
Excised lung gas volume (ELGV) is measured by Archimedes' principle and is based on the stable amount of air trapped within the excised lungs at a transpulmonary pressure of 0 cmH2O. […] A density determination kit (P3000, Mettler-Toledo GmbH, Sweden) and optional density determination software for the balance were used on the basis of the principle that every solid body immersed in fluid loses weight, and is expressed as g/cm^3. […] ELGV is determined by the difference between bracket weight and lung buoyancy in the liquid. […] Indication of lung tissue edema was calculated by the difference between lung tissue weight outside the beaker and bracket weight. The lung tissue density was determined by the ratio of the lung weight (difference between lung tissue weight outside the beaker and holder weight) and the air volume within the lung (ELGV). […]

[4] = 0.1 mg/kg pretreatment (FIG. 5)
[5] = drug 0.1 mg/kg intra-tracheal, MCh (10 mg/mL)
[6] = drug 0.1 mg/kg intra-tracheal, MCh (30 mg/mL)
[7] = drug 2.5 mg/kg intra-tracheal, MCh (10 mg/mL)
[8] = drug 2.5 mg/kg intra-tracheal, MCh (30 mg/mL)

Row | Compound | inhibition of OVA induced leukocyte influx in BAL [1, 4] | AHR: Cdyn, % increase from that of the positive control [1, 5] | AHR: RL, % inhibition from that of the positive control [1, 5] | AHR: Cdyn, % increase from that of the positive control [1, 6] | AHR: RL, % inhibition from that of the positive control [1, 6] | AHR: Cdyn, % increase from that of the positive control [1, 7] | AHR: RL, % inhibition from that of the positive control [1, 7] | AHR: Cdyn, % increase from that of the positive control [1, 8] | AHR: RL, % inhibition from that of the positive control [1, 8] | % of the animals died by acute airway constriction (Guinea-pig anaphylaxis; 0.65 mg/kg intranasal 30 min prior to OVA) | % inhibition of protein content of the nasal lavage fluid (plasma exudation) [2] | eosinophil and neutrophil infiltration into nasal lavage fluid [2] | inhibition of OVA induced leukocyte influx in BAL ([1]; 2.5 mg/kg pretreatment (FIG. 5)) | antigen induced elevated protein content of BAL ([1]; even at 0.1 mg/kg (FIG. 4)) | lung function: development of Cdyn and RL ([1]; methacholine evoked bronchoconstriction, 8 hours after provocation) | numbers of neutrophils in BALF (mouse model of emphysema; acute cigarette smoke exposure) | cellular infiltrate into BALF (mouse model of emphysema; acute cigarette smoke exposure, inhaled 30 minutes before exposure) | anti-inflammatory activity in COPD model (mouse model of emphysema; chronic smoke exposure, once a day) | inhibition of neutrophil infiltration (BAL) [3] | % of the animals died (anaphylaxis) (Guinea-pig anaphylaxis)
1 | CCCC1O[C@@H]2C[C@H]3[C@@H]4CCC5=CC(=O)C=C[C@]5(C)[C@H]4[C@@H](O)C[C@]3(C)[C@]2(C(=O)CO)O1 (some centres unmarked) [Budesonide, reference compound] | 76% | 97.2%** | 86.5%** | 116.2%** | 105%** | 19.7% | −89.4% | 70.9%** | 98.9%** | 70% | – | – | – | – | – | – | – | – | – | –
2 | (Maltopentaose)-Et4-(Maltopentaose) [ID 9] | 62% | 76.6%** | 75.3%* | 90%** | 84.4%** | 68.7%* | 80.5%** | 128.4%** | 99.5%** | – | 51.5% | particularly effective at blocking not only eosinophil infiltration but also neutrophil infiltration | 85% | very effectively inhibits the elevated protein content of BAL | inhibited the development of both Cdyn and RL | significantly attenuated | decreased the cellular infiltrate into BALF | could act as anti-inflammatory agents | marked | 35%
3 | (Maltopentaose)-(Et2)-(Maltopentaose) [ID 7] | – | – | – | – | – | – | – | – | – | – | 91.4% | only blocked eosinophils | – | – | – | – | – | – | – | 27%
